Data set [1] can be described thus: Partition coefficient (logP). In kind it is physicochemical. The settings on record: octanol/water.
Data set [2] is described as follows: Dissociation constant with retinol binding protein was determined.

Data on 4 compounds can be found in ChEMBL document CHEMBL1132732, “HINT predictive analysis of binding between retinol binding protein and hydrophobic ligands” (Bioorg Med Chem Lett, 2000).

By logP is commonly meant a log measure of how a compound divides between an organic and an aqueous phase. A higher logP goes with a more lipophilic compound. For orientation: Kd means the free concentration of one partner at which half of the binding sites on the other are occupied at equilibrium, for simple one-to-one binding. A high value points to lower affinity. `CCNC(=O)/C=C(C)/C=C/C=C(C)/C=C/C1=C(C)CCCC1(C)C` returned a logP in data set [1] of 6.31. This compound displayed a Kd in data set [2] of 90 nM. The matching figures for `CC1=C(/C=C/C(C)=C/C=C/C(C)=C/CO)C(C)(C)CCC1` [RETINOL]: 6.16 and 70 nM. For `CC1=C(/C=C/C(C)=C/C=C/C(C)=C/C(=O)Nc2ccc(O)cc2)C(C)(C)CCC1` [FENRETINIDE], the Kd in data set [2] was 170 nM. For `C/C=C(C)/C=C/C=C(C)/C=C/C1=C(C)CCCC1(C)C`, in data set [1], the logP is 8.15.
